From PMC4354951 (European journal of medicinal chemistry, 2008)

Experiments:
[1] = tested on: perfused rat pancreas; conditions: perfused rat pancreas ref 31, cited from earlier work
[2] = tested on: P2Y2R; conditions: cited from earlier work
[3] = physiological pH ref 30; cited from earlier work
[4] = pH 1.4, 37 °C ref 30; cited from earlier work
[5] = target: turkey P2Y1 receptor (Meleagris gallopavo, UniProt P49652); assay type: cell-based; conditions: 1321N1 cell transfectants
[6] = Stability in human blood serum, Method A; assay type: in vitro ADME; conditions: half-life vs ATP
[7] = pKa and degree of ionization of phosphate/phosphonate; assay type: physicochemical; conditions: physiological conditions, pH 7.4
[8] = tested on: ecto-5′-nucleotidases; conditions: muscle strip preparations, 60 min incubation ref 21; cited from earlier work
[9] = target: human P2Y2 receptor (Homo sapiens, UniProt P41231); test: Increase in [Ca2+]i in 1321N1 astrocytoma cells expressing P2Y2 receptor; assay type: cell-based
[10] = target: T1, human NTPDase3 (Homo sapiens, UniProt O75355); test: Hydrolysis by NTPDase3; assay type: biochemical; conditions: 100 μM substrate; relative to ATP hydrolysis (100%)
T1 sequence (O75355 1-529): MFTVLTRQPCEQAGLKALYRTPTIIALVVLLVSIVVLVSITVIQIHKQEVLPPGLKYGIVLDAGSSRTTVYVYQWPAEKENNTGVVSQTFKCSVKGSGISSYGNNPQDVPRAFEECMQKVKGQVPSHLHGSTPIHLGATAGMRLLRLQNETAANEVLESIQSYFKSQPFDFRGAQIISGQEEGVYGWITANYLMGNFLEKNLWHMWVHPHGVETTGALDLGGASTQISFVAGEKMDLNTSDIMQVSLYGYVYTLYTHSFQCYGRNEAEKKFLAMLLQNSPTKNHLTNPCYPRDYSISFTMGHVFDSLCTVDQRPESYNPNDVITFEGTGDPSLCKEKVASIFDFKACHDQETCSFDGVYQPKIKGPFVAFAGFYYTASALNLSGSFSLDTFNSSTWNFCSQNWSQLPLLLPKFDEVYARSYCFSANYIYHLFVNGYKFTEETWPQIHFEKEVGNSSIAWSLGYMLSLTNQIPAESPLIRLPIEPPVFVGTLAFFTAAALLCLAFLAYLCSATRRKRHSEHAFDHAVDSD

[11] = target: T2, human NTPDase1 (Homo sapiens, UniProt P49961); test: Hydrolysis by NTPDase1; assay type: biochemical; conditions: 100 μM substrate; relative to ATP hydrolysis (100%)
T2 sequence (P49961 1-510): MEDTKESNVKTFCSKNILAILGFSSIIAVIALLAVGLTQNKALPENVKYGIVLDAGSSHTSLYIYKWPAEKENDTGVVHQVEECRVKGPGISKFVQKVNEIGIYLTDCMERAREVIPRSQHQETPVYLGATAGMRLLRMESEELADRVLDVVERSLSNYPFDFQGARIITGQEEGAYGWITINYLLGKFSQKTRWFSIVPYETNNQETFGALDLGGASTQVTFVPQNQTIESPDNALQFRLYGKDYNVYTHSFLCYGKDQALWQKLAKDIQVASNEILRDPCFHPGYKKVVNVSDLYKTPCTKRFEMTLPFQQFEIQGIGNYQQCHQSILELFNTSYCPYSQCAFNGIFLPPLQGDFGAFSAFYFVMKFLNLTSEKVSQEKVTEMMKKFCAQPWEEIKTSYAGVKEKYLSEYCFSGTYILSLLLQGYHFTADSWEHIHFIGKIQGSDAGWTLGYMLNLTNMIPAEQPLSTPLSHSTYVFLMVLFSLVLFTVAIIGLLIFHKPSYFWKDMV

[12] = target: human P2Y4 receptor (Homo sapiens, UniProt P51582); test: Increase in [Ca2+]i in 1321N1 astrocytoma cells expressing P2Y4 receptor; assay type: cell-based
[13] = target: rat P2Y6 receptor (Rattus norvegicus, UniProt Q63371); test: Increase in [Ca2+]i in 1321N1 astrocytoma cells expressing P2Y6 receptor; assay type: cell-based
[14] = target: T3, human NTPDase8 (Homo sapiens, UniProt Q5MY95); test: Hydrolysis by NTPDase8; assay type: biochemical; conditions: 100 μM substrate; relative to ATP hydrolysis (100%)
T3 sequence (Q5MY95 1-495): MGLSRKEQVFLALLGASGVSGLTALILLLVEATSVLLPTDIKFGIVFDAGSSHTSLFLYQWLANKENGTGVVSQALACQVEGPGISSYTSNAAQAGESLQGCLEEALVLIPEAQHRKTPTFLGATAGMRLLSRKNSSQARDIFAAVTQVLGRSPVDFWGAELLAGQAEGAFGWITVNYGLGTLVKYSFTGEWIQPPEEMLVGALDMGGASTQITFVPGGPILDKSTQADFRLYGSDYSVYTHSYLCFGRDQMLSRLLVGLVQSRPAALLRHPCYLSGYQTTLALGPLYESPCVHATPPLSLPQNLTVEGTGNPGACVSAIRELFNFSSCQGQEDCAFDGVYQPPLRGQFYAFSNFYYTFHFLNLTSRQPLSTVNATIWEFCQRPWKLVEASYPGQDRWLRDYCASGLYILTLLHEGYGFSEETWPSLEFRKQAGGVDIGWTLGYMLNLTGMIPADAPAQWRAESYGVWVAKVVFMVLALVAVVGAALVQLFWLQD

[15] = Chemical hydrolysis under gastric juice-like conditions; assay type: physicochemical; conditions: pH 1.4, 37 °C
[16] = tested on: P2X2/3Rs; conditions: cited from earlier work
[17] = tested on: P2Y1R; conditions: cited from earlier work
[18] = tested on: 1321N1 astrocytoma and C6 glioma cells; conditions: via NPPs and CD73 ref 39; cited from earlier work
[19] = tested on: P2X1R; conditions: cited from earlier work

human P2Y2 receptor, sequence (P41231 whole entry): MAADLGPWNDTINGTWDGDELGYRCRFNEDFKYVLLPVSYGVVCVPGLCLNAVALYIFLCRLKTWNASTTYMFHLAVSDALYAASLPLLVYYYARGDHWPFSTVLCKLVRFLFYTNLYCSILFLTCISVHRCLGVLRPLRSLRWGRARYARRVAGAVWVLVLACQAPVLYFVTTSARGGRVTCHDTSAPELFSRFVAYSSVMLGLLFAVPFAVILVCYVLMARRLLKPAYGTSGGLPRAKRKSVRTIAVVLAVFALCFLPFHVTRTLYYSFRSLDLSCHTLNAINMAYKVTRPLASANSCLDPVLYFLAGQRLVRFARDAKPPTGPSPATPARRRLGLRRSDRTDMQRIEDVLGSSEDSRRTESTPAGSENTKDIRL
turkey P2Y1 receptor, sequence (P49652 whole entry): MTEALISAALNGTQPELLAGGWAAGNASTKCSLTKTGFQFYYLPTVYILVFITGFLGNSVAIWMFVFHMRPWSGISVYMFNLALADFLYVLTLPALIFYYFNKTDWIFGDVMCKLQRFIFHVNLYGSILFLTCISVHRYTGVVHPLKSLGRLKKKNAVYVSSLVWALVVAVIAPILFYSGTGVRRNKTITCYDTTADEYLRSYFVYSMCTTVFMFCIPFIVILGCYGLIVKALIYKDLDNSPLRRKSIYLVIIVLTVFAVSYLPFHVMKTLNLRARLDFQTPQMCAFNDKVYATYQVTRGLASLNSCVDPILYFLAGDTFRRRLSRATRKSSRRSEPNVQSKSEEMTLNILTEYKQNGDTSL
rat P2Y6 receptor, sequence (Q63371 whole entry): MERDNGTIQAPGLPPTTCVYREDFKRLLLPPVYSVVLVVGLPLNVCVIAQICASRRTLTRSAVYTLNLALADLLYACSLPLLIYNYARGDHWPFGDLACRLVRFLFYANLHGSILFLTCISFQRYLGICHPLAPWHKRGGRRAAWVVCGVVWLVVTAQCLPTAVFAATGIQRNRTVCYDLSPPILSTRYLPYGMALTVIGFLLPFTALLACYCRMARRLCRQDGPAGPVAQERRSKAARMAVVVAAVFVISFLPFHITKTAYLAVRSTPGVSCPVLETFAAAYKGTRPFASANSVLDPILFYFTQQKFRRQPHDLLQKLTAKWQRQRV
human P2Y4 receptor, sequence (P51582 whole entry): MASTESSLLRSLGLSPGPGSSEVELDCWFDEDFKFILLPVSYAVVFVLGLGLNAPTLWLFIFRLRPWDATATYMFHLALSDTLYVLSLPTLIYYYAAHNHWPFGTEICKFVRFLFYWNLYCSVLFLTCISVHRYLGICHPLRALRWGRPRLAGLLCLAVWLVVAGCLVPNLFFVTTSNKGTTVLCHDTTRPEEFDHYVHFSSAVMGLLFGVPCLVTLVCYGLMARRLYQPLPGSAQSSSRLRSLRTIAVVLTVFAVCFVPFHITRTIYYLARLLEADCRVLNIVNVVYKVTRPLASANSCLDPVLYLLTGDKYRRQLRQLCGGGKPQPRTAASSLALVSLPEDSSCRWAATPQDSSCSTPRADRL

Question: Which “enhancement of insulin secretion as compared to basal secretion” value [1] does the source give for 2-MeS–ATP-α-B [compound 1] here?
Answer: ninefold

Question: What about the EC50 ([1]; read-out: EC50 of insulin secretion) of the same compound?
Answer: 0.028 µM

Question: And the “activity at P2Y2R” value [2]?
Answer: very weak agonists

Question: What about the “t1/2 at physiological pH” value [3] of the same compound?
Answer: 1395 h

Question: What about the “t1/2 of acidic hydrolysis” value [4] of the same compound?
Answer: 5.9 h

Question: Which “agonist activity at P2Y1R” value [5] does the source give for `CSc1nc(N)c2ncn([C@@H]3O[C@H](COP(=O)(O)OP(=O)(O)CP(=O)(O)O)[C@@H](O)[C@H]3O)c2n1` [compound 2, 2-MeS–adenosine-5′-O-triphosphate-β,γ-CH2] here?
Answer: potent P2Y1R agonists

Question: And the “enhancement of the metabolic stability of ATP” value [6]?
Answer: ≥ 3.5 fold

Question: And the fraction ionized [7]?
Answer: 9%

Question: And the “degradation by ecto-5′-nucleotidases” value [8]?
Answer: no degradation

Question: And the EC50 [9]?
Answer: > 100 µM

Question: What about the “agonist activity at P2Y2R” value ([9]; 1321N1 cell transfectants) of the same compound?
Answer: inactivity

Question: And the “Relative activity of NTPDase3” value [10]?
Answer: 7–8%

Question: And the “Relative activity of NTPDase1” value [11]?
Answer: 7–8%

Question: And the EC50 [12]?
Answer: > 100 µM

Question: What about the EC50 [13] of the same compound?
Answer: > 100 µM

Question: And the “Relative activity of NTPDase8” value [14]?
Answer: 7–8%

Question: What about the “improvement of chemical stability as compared to 1” value [15] of the same compound?
Answer: ~11 fold

Question: Which “activity at P2X2/3Rs” value [16] does the source give for `Nc1ncnc2c1ncn2[C@@H]1O[C@H](COP(=O)(O)OP(=O)(O)CP(=O)(O)O)[C@@H](O)[C@H]1O` [β,γ-CH2–ATP] here?
Answer: weak agonist

Question: What about the “activation of P2Y1Rs” value [17] of the same compound?
Answer: did not activate

Question: What about the “antagonism at P2Y1R” value ([17]; responses elicited by 2-MeS–ADP ref 48) of the same compound?
Answer: weak competitive antagonist

Question: What about the “degradation by ecto-5′-nucleotidases” value [8] of the same compound?
Answer: no degradation

Question: And the “metabolism in cells” value [18]?
Answer: rapidly metabolized to adenosine

Question: What about the “activity at P2X1R” value [19] of the same compound?
Answer: P2X1R agonist
